Biological target: T1, rPAPD5 (Homo sapiens, UniProt Q8NDF8)
T1 construct: made in house
Experiment: differential scanning fluorimetry (DSF) binding and stabilization of rPAPD5
Details: shift vs DMSO control; for ΔTm at 100 µM: 100 μM test compound, read-out: ΔTm at 100 μM
Protocol: Binding and stabilization of rPAPD5 by test compounds was determined using differential scanning fluorimetry (DSF). DSF assays were performed to determine protein melting temperature using an indicator dye SYPRO orange (Thermo Fisher Scientific, S6651) diluted 1:5000 in […] of buffer containing […], […] (Jena Biosciences), 25 mM Tris-HCl, 5 mM MgCl2, 50 mM KCl. […] DMSO was used as a negative control. Each curve was an average of three measurements and Thermal Shift software (Thermo Fisher Scientific, 4466038) was used for analysis. […] The change in melting temperature (ΔTm) is in reference to the DMSO control. Referring to Table 2, “+” refers to ΔTm values below 1° C., “++” refers to ΔTm values from 1 to 5° C., and “+++” refers to ΔTm values above 5° C.

T1 sequence (Q8NDF8 68-698 isoform Q8NDF8-5 limits assumed): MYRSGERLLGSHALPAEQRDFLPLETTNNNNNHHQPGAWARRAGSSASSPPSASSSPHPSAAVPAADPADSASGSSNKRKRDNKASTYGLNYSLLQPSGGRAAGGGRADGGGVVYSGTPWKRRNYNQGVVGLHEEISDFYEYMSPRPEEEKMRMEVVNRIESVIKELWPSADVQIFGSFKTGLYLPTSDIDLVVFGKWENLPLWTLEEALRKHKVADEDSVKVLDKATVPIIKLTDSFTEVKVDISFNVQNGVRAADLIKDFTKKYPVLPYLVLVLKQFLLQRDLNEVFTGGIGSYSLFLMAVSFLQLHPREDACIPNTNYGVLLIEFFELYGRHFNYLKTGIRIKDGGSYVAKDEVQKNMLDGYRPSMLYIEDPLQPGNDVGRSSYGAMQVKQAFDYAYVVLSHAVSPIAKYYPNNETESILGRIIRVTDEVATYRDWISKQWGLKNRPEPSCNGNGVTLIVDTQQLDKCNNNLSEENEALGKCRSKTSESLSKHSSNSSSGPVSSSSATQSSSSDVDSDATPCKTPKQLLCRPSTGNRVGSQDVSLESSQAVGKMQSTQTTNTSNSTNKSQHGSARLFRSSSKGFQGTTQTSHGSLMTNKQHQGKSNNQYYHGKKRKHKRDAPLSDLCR

| SMILES | ΔTm at 100 µM [°C] | ΔTm at 10 µM (10 μM test compound, read-out: ΔTm (Table 2, starred: the compound was tested at 10 μM)) [°C] |
| --- | --- | --- |
| O=C1Cc2ccc(-c3ccc4ncc(S(=O)(=O)N5CCOCC5)c(Nc5ccccc5C(=O)O)c4c3)cc2N1 [Compound 170A, 2-[[3-morpholinosulfonyl-6-(2-oxoindolin-6-yl)-4-quinolyl]amino]benzoic acid] | 1 to 5 | – |
| CNc1ncc2cc(-c3ccc4ncc(S(=O)(=O)N5CCOCC5)c(Nc5ccccc5C(=O)O)c4c3)ccc2n1 [Compound 171A, 2-[[6-[2-(methylamino)quinazolin-6-yl]-3-morpholinosulfonyl-4-quinolyl]amino]benzoic acid] | 1 to 5 | – |
| O=C(O)c1ccccc1Nc1c(S(=O)(=O)N2CCOCC2)cnc2ccc(-c3ccc(S(=O)(=O)N4CCOCC4)cc3)cc12 [Compound 172A, 2-[[3-morpholinosulfonyl-6-(4-morpholinosulfonylphenyl)-4-quinolyl]amino]benzoic acid] | 1 to 5 | – |
| O=C(O)c1ccc(-c2ccc3ncc(S(=O)(=O)N4CCOCC4)c(Nc4ccccc4C(=O)O)c3c2)cc1 [Compound 173A, 2-[[6-(4-carboxyphenyl)-3-morpholinosulfonyl-4-quinolyl]amino]benzoic acid] | 1 to 5 | – |
| CCN(CC)C(=O)c1ccc(-c2ccc3ncc(S(=O)(=O)N4CCOCC4)c(Nc4ccccc4C(=O)O)c3c2)cc1 [Compound 174A, 2-[[6-[4-(diethylcarbamoyl)phenyl]-3-morpholinosulfonyl-4-quinolyl]amino]benzoic acid] | < 1 | – |
| O=C(O)c1ccccc1Nc1c(S(=O)(=O)N2CCOCC2)cnc2ccc(-c3ccc4c(c3)OCO4)cc12 [Compound 175A, 2-[[6-(1,3-benzodioxol-5-yl)-3-morpholinosulfonyl-4-quinolyl]amino]benzoic acid] | > 5 | – |
| Cc1cc(OCc2ccccc2)ccc1-c1ccc2ncc(S(=O)(=O)N3CCOCC3)c(Nc3ccccc3C(=O)O)c2c1 [Compound 176A, 2-[[6-(4-benzyloxy-2-methyl-phenyl)-3-morpholinosulfonyl-4-quinolyl]amino]benzoic acid] | – | < 1 |
| Cn1ncc2ccc(-c3ccc4ncc(S(=O)(=O)N5CCOCC5)c(Nc5ccccc5C(=O)O)c4c3)cc21 [Compound 177A, 2-[[6-(1-methylindazol-6-yl)-3-morpholinosulfonyl-4-quinolyl]amino]benzoic acid] | 1 to 5 | – |
| O=C(O)c1ccccc1Nc1c(S(=O)(=O)N2CCOCC2)cnc2ccc(-c3ccc(-n4cccn4)cc3)cc12 [Compound 178A, 2-[[3-morpholinosulfonyl-6-(4-pyrazol-1-ylphenyl)-4-quinolyl]amino]benzoic acid] | 1 to 5 | – |
| CS(=O)(=O)Nc1ccc(-c2ccc3ncc(S(=O)(=O)N4CCOCC4)c(Nc4ccccc4C(=O)O)c3c2)cc1 [Compound 179A, 2-[[6-[4-(methanesulfonamido)phenyl]-3-morpholinosulfonyl-4-quinolyl]amino]benzoic acid] | 1 to 5 | – |
| CN1CCN(c2ccc(-c3ccc4ncc(S(=O)(=O)N5CCOCC5)c(Nc5ccccc5C(=O)O)c4c3)cc2)CC1 [Compound 180A, 2-[[6-[4-(4-methylpiperazin-1-yl)phenyl]-3-morpholinosulfonyl-4-quinolyl]amino]benzoic acid] | < 1 | – |
| O=C(O)c1ccccc1Nc1c(S(=O)(=O)N2CCOCC2)cnc2ccc(-c3ccc4[nH]cnc4c3)cc12 [Compound 182A, 2-[[6-(1H-benzimidazol-5-yl)-3-morpholinosulfonyl-4-quinolyl]amino]benzoic acid] | 1 to 5 | – |
| O=C(O)c1ccccc1Nc1c(NC2CCOCC2)cnc2ccc(Cl)cc12 [Compound 184A, 2-[[6-chloro-3-(tetrahydropyran-4-ylamino)-4-quinolyl]amino]benzoic acid] | > 5 | – |
| O=C(O)c1ccccc1Nc1c(NC2CCNCC2)cnc2ccc(Cl)cc12 [Compound 186A, 2-[[6-chloro-3-(4-piperidylamino)-4-quinolyl]amino]benzoic acid] | 1 to 5 | – |
| O=C(O)c1ccccc1Nc1c(NC2CCS(=O)(=O)CC2)cnc2ccc(Cl)cc12 [Compound 188A, 2-[[6-chloro-3-[(1,1-dioxothian-4-yl)amino]-4-quinolyl]amino]benzoic acid] | > 5 | – |
| O=C(O)c1ccccc1Nc1c(Nc2cncnc2)cnc2ccc(Cl)cc12 [Compound 191A, 2-[[6-chloro-3-(pyrimidin-5-ylamino)-4-quinolyl]amino]benzoic acid] | > 5 | – |
| O=C(O)c1ccccc1Nc1c(C2CCOCC2)cnc2c1CCCC2 [Compound 204A-BP, 2-[(3-tetrahydropyran-4-yl-5,6,7,8-tetrahydroquinolin-4-yl)amino]benzoic acid] | > 5 | – |
| O=C(O)c1ccccc1Nc1c(C2CCC(F)(F)CC2)cnc2ccc(Cl)cc12 [Compound 205A, 2-[[6-chloro-3-(4,4-difluorocyclohexyl)-4-quinolyl]amino]benzoic acid] | > 5 | – |
| O=C(O)c1ccccc1Nc1c(C2CCNCC2)cnc2ccc(Cl)cc12 [Compound 206A, 2-[[6-chloro-3-(4-piperidyl)-4-quinolyl]amino]benzoic acid] | > 5 | – |

| SMILES | ΔTm at 100 µM [°C] | ΔTm at 10 µM (10 μM test compound, read-out: ΔTm (Table 2, starred: the compound was tested at 10 μM)) [°C] |
| --- | --- | --- |
| O=C(O)c1ccccc1Nc1c(C2=CCNCC2)cnc2ccc(Cl)cc12 [Compound 206A-INT, 2-[[6-chloro-3-(1,2,3,6-tetrahydropyridin-4-yl)-4-quinolyl]amino]benzoic acid] | > 5 | – |
| CN1CCC(c2cnc3ccc(Cl)cc3c2Nc2ccccc2C(=O)O)CC1 [Compound 207A, 2-[[6-chloro-3-(1-methyl-4-piperidyl)-4-quinolyl]amino]benzoic acid] | > 5 | – |
| CN1CC=C(c2cnc3ccc(Cl)cc3c2Nc2ccccc2C(=O)O)CC1 [Compound 207A-INT, 2-[[6-chloro-3-(1-methyl-3,6-dihydro-2H-pyridin-4-yl)-4-quinolyl]amino]benzoic acid] | > 5 | – |
| O=C(O)c1ccccc1Nc1c(C2CCS(=O)(=O)CC2)cnc2ccc(Cl)cc12 [Compound 208A, 2-[[6-chloro-3-(1,1-dioxothian-4-yl)-4-quinolyl]amino]benzoic acid] | > 5 | – |
| O=C(O)c1ccccc1Nc1c(C2=CCS(=O)(=O)CC2)cnc2ccc(Cl)cc12 [Compound 208A-INT, 2-[[6-chloro-3-(1,1-dioxo-3,6-dihydro-2H-thiopyran-4-yl)-4-quinolyl]amino]benzoic acid] | 1 to 5 | – |
| O=C(O)c1ccccc1Nc1c(-c2ccncc2)cnc2ccc(Cl)cc12 [Compound 209A, 2-[[6-chloro-3-(4-pyridyl)-4-quinolyl]amino]benzoic acid] | > 5 | – |
| O=C(O)c1ccccc1Nc1c(-c2nccs2)cnc2ccc(Cl)cc12 [Compound 211A, 2-[(6-chloro-3-thiazol-2-yl-4-quinolyl)amino]benzoic acid] | > 5 | – |
| O=C(O)c1ccccc1Nc1c(-c2cnoc2)cnc2ccc(Cl)cc12 [Compound 212A, 2-[(6-chloro-3-isoxazol-4-yl-4-quinolyl)amino]benzoic acid] | 1 to 5 | – |
| O=C(O)c1ccccc1Nc1c(S(=O)(=O)NC2CCOCC2)cnc2ccc(Cl)cc12 [Compound 216A, 2-[[6-chloro-3-(tetrahydropyran-4-ylsulfamoyl)-4-quinolyl]amino]benzoic acid] | > 5 | – |
| O=C(O)c1ccccc1Nc1c(S(=O)(=O)NC2CCC(F)(F)CC2)cnc2ccc(Cl)cc12 [Compound 217A, 2-[[6-chloro-3-[(4,4-difluorocyclohexyl)sulfamoyl]-4-quinolyl]amino]benzoic acid] | > 5 | – |
| CN1CCC(NS(=O)(=O)c2cnc3ccc(Cl)cc3c2Nc2ccccc2C(=O)O)CC1 [Compound 219A, 2-[[6-chloro-3-[(1-methyl-4-piperidyl)sulfamoyl]-4-quinolyl]amino]benzoic acid] | 1 to 5 | – |
| O=C(O)c1ccccc1Nc1c(S(=O)(=O)N2CCS(=O)(=O)CC2)cnc2ccc(Cl)cc12 [Compound 220A, 2-[[6-chloro-3-[(1,1-dioxo-1,4-thiazinan-4-yl)sulfonyl]-4-quinolyl]amino]benzoic acid] | > 5 | – |
| O=C(O)c1ccccc1Nc1c(S(=O)(=O)Nc2ccncc2)cnc2ccc(Cl)cc12 [Compound 221A, 2-[[6-chloro-3-(4-pyridylsulfamoyl)-4-quinolyl]amino]benzoic acid] | > 5 | – |
| NS(=O)(=O)c1ccc(NS(=O)(=O)c2cnc3ccc(Cl)cc3c2Nc2ccccc2C(=O)O)cc1 [Compound 231A, 2-[[6-chloro-3-[(4-sulfamoylphenyl)sulfamoyl]-4-quinolyl]amino]benzoic acid] | > 5 | – |
| O=C(O)c1ccccc1Nc1c(Br)cnc2ccc(Cl)cc12 [Compound 232A, 2-[(3-bromo-6-chloro-4-quinolyl)amino]benzoic acid] | > 5 | – |
| O=C(O)c1ccccc1Nc1c(S(=O)(=O)N2CCOCC2)cnc2ccc(C(F)(F)F)cc12 [Compound 234A, 2-[[3-morpholinosulfonyl-6-(trifluoromethyl)-4-quinolyl]amino]benzoic acid] | > 5 | – |
| CC(=O)NS(=O)(=O)c1ccc2ncc(S(=O)(=O)N3CCOCC3)c(Nc3ccccc3C(=O)O)c2c1 [Compound 235A, 2-[[6-(acetylsulfamoyl)-3-morpholinosulfonyl-4-quinolyl]amino]benzoic acid] | 1 to 5 | – |
| O=C(O)c1ccccc1Nc1c(S(=O)(=O)N2CCOCC2)cnc2ccc(OC(F)F)cc12 [Compound 236A, 2-[[6-(difluoromethoxy)-3-morpholinosulfonyl-4-quinolyl]amino]benzoic acid] | > 5 | – |

Source: US20250026769A1, “PAPD5 INHIBITORS AND METHODS OF USE THEREOF” (The Children's Medical Center Corporation, priority 2021, published 2025)
